Data on 4 compounds can be found in ChEMBL document CHEMBL1140457, “(1R,2S)-4-(2-cyano-cyclohexyl-oxy)-2-trifluoromethyl-benzonitrile, a potent androgen receptor antagonist for stimulating hair growth and reducing sebum production” (Bioorg Med Chem Lett, 2007).

Series [1] concerns the target T1, Androgen receptor (Homo sapiens, UniProt P10275).
T1 sequence (P10275 whole entry): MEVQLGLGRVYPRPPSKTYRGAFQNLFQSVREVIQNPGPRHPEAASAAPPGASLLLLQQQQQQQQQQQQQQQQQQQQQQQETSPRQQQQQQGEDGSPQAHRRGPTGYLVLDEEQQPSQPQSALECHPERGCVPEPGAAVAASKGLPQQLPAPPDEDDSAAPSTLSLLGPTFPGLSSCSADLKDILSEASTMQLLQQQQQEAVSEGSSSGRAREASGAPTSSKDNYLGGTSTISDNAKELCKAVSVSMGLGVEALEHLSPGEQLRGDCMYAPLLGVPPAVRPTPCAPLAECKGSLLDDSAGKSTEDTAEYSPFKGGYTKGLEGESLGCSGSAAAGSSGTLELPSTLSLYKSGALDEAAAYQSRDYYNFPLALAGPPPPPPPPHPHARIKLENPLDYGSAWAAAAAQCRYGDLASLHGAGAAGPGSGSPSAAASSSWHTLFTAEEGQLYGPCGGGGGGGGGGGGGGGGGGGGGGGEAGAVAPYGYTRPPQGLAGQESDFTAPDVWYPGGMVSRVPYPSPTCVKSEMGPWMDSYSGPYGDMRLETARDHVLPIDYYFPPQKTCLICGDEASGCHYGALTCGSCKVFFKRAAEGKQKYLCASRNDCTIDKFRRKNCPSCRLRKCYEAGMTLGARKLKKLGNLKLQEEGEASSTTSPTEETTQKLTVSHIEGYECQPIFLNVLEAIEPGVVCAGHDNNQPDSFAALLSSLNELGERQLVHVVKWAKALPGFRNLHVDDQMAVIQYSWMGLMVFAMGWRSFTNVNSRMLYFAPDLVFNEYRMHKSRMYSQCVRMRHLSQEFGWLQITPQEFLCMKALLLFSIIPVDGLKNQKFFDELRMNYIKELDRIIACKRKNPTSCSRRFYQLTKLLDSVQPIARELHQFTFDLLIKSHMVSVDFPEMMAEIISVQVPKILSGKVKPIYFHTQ
In words: Displacement of [3H]DHT from androgen receptor expressed in Sf9 cells.

Series [2] concerns the target T1, Androgen receptor. In words: Antagonist activity at androgen receptor expressed in MDA-MB-453 cells assessed as inhibition of dihydrotestosterone-induced response in reporter gene assay. The class given is functional, cell-based. Background: In a reporter assay the amount or activity of a reporter protein is the signal.
Series [3] concerns Mus musculus. In words: Stimulation of hair growth in topically dosed C3H/HeN mouse model administered twice daily for 4 weeks. The format is functional, organism-based.
Series [4] deals with Syrian golden hamster. In words: Reduction of sebum production in topically dosed Syrian hamster ear model administered twice daily for 2 weeks. The class given is functional, Mesocricetus auratus.
The subject of series [5] is Syrian golden hamster. In words: Reduction of sebaceous gland size in topically dosed Syrian hamster ear model administered twice daily for 2 weeks. The format is functional, organism-based. Conditions: Mesocricetus auratus.
Series [6] is described as follows: Plasma clearance in Sprague-Dawley rat at 1 mg/kg, iv. The format is ADME, organism-based. Also on record: dose 1 mg/kg, route intravenous.
Series [7] in a line: Volume of distribution at steady state in Sprague-Dawley rat at 1 mg/kg, iv. The class given is ADME, organism-based. Also on record: dose 1 mg/kg, route intravenous. Conditions: in vivo, read-out: Vdss.
Series [8] in a line: Half life in Sprague-Dawley rat at 1 mg/kg, iv. The class given is ADME, organism-based. Also on record: dose 1 mg/kg, route intravenous. The following applies: in vivo.
The nature of series [9]: Metabolic stability in Sprague-Dawley rat hepatocytes assessed as hepatic extraction ratio at 1 uM. The following applies: read-out: Stability. The format is ADME, cell-based, Hepatocyte.
Series [10] in a line: Metabolic stability in Beagle dog hepatocytes assessed as hepatic extraction ratio at 1 uM. The class given is ADME, cell-based, Canis lupus familiaris, Hepatocyte. Conditions: read-out: Stability.
The nature of series [11]: Metabolic stability in human hepatocytes assessed as hepatic extraction ratio at 1 uM. The following applies: read-out: Stability. The format is ADME, cell-based, Hepatocyte.
The subject of series [12] is Syrian golden hamster. Nature of the series: Reduction of sebum production in topically dosed Syrian hamster ear model administered at 0.5% concentration twice daily for 2 weeks. The format is functional, Mesocricetus auratus. Also on record: scale not given: the % may be the effect or the level left.

pIC50: −log10 of the molar value. Activity calls are given as the source filed them.

The term pIC50 denotes the IC50 on a negative log10 scale, so that one unit is a factor of ten. What is called clearance is the volume of plasma or blood freed of the substance per unit of time. As a reminder, the half-life is the time needed for the level to fall by half in the phase considered.

Consider `N#Cc1ccc(O[C@H]2CCCC[C@@H]2C#N)cc1C(F)(F)F`, for which the negative-log IC50 (pIC50) is 7.37 in series [1] and 6.71 in series [2].

With `N#Cc1ccc(OC2CCCCC2C#N)cc1C(F)(F)F` (racemic), the pIC50 is 7.24 in series [1] and 7.89 in [2].

Consider `N#Cc1ccc(O[C@@H]2CCCC[C@H]2C#N)cc1C(F)(F)F`, for which the Activity result in [3] was “Dose-dependent effect”. Further, the ED50 in series [4] turned out to be 0.1%. Also, the outcome in series [5] was Active. Further, in series [6], the clearance amounted to 71 mL/min/kg. Besides, the Vd in series [7] came out at 6.5 L/kg. In [8], this compound gave a half-life of 1.6 h. In addition, the hepatic extraction ratio at 1 µM in [9] amounted to 0.88; in series [10], 0.92; in [11] it was 0.57. Besides, the results for the pIC50 in series [1] and in series [2] were 7.22 and 7.92, respectively.

Compound `CC1(C)C(=O)N(c2ccc(C#N)c(C(F)(F)F)c2)C(=O)N1CCCCO` [RU-58841] gave an Activity in series [12] of 91%.
